In patent publication US10695406B2, “Modulation of cellular stress using a B-cell oxidative and/or endoplasmic reticulum stress inhibitor and a targeting agent” (THE UNIVERSITY OF QUEENSLAND, priority 2014, dated 2020):

Assays:
MIN6N8 cells = assay: Oxidative stress gene expression (RT2 Profiler PCR array, qRT-PCR) in MIN6N8 cells; type: cell-based, murine; conditions: non-stressed β-cells, 50 ng/mL
Experimental: Tissue samples were snap-frozen, and homogenized in TRIZOL using FASTPREP (MP BIOMEDICAL). RNA was isolated using High Pure RNA isolation kit (ROCHE), followed by cDNA synthesis using iScript (BIORAD) containing oligo(dT) and random hexamers. QPCR SYBR Green (INVITROGEN) was used for quantitative PCR using a HT7900 (ABI SYSTEMS). RoX was used as a normalization reference. Results were analyzed using SDS software (version 2.3) (ABI SYSTEMS). Primer efficiencies were determined using cDNA dilutions and primer dilutions for the genes of interest. All the data was normalized against the housekeeping gene, Gapdh, and expressed as a fold difference to the mean of relevant control samples.
cDNA from MIN6N8 cells treated with DMSO or 50 ng/mL IL-22 was compared using the oxidative stress RT^2 Profiler PCR Array (QIAGEN, PAMM-065Z). Data were analyzed using RT^2 Profiler PCR Array data analysis software.
Experiments to assess ER and/or oxidative stress, and methods of qRT-PCT and/or quantifying gene expression were performed as described for Example 1. Xbp1 splicing is assessed by qRT-PCR, with normalization versus Gapdh, and expression presented as fold of vehicle-treated control cells.

[1] = test system: mice with high fat diet-induced obesity (HFDIO); assay: HFDIO Experiment 1: high fat diet induced obesity, treated last 3 weeks of 16; type: in vivo, C57BL/6 male mice
Source text: All mice were housed in sterilized, filter-topped cages in a conventional clean facility. Six to eight week old C57BL/6 male mice were fed ad libitum on a high fat diet containing 46% of available energy as saturated fat, 34% carbohydrate, 20% protein (Speciality feeds, SF04-027). Or on normal chow containing less than 10% saturated fat (GOLDMIX, 126575). Cages of mice were randomly allocated to the experimental groups by random draw. Investigators were not blinded to treatment by there were no subjective assessments made.
Total insulin and proinsulin were measured in supernatant from islet cultures or in serum from mice using commercially obtained ELISA kits from MILLIPORE and MERCODIA, respectively. The molar insulin concentration was determined by subtracting the molar proinsulin concentration from molar total insulin, and then the serum proinsulin:insulin ratio was calculated.
From […] of the diet, mice were treated with 20 ng/g i.p. recombinant murine IL-22 twice weekly (R&D SYSTEMS), 3 μg/g anti-IL-23 weekly (ELI-LILLY), 0.1 mg/mouse anti-IL-24 weekly (PROTEIN TECH), or 0.5 mg/mouse irrelevant isotype control antibody, sacrificed and sampled.
Fasted i.p. glucose tolerance tests (2 g/kg glucose) and insulin tolerance tests (0.25 U/kg insulin; Humalog, Lilly) were performed at the times indicated in the Figure Legends.
Pancreatic tissue was fixed in 10% neutral buffered formalin and processed using standard histological techniques. Standard immunohistochemical and immunofluorescent staining methods were used to determine the presence of Grp78, insulin, glucagon, IL-22R1, proinsulin and ATF6-GFP.
The area in pixels/mm^2 was determined for Grp78 and insulin (immunofluorescence) and proinsulin (immunohistochemisty) in the core of β-cell rich area of 3-4 islets per mouse (n=6-10 mice) using IMAGEJ software version 1.45s. Live cell imagine in MIN6N8 cells was carries out at 37° C. in 5% CO2 in a chamber using an OLYMPUS XCELLENCE RT microscope.

Murine MIN6N8 cells = assay: ERAI-sXBP1 reporter ER stress in MIN6N8 cells with 0.5 mM palmitate; type: cell-based; conditions: 15.4 nM, 24 hours, no palmitate
Experimental: (§1) Cell culture: Murine MIN6N8 cells were tested negative for mycoplasma. Cells were routinely cultured in phenol-red free DMEM (Life Technologies) containing 25 mM glucose (3.4 g/L sodium bicarbonate, 50 U/mL penicillin and streptomycin, 71.5 μM β-mercaptoethanol and 10% heat inactivated fetal bovine serum) and transferred to DMEM as above with 5.5 mM glucose 48 h prior to experimentation. Human LS174T cells were cultured in DMEM containing 10% heat-inactivated fetal bovine serum, 50 U mL^−1 penicillin and streptomycin.
ER Stress Measurement: MIN6N8 cells were transfected with the ERAI reporter plasmid (F-XBP1ΔDBD-venus, using Lipofectamine 2000 according to the manufacturer's instructions. For ERAI there was negligible fluorescence in the absence of ER stressors, but upon induction of ER stress, splicing of XBP1 mRNA by IRE1a results in the translation of Venus but not an active form of XBP1. Fluorescence was measured (excitation: 485 nm; emission: 520 nm) using a POLARstar Omega plate reader and cells were treated 48 h after transfection. […] After 24 h, ERAI-sXBP1 GFP reporter fluorescence was measured.

Human LS174T cells = assay: Oxidative stress (nitrite, Griess assay) in LS174T cells with 0.5 mM palmitate; type: cell-based; conditions: human LS174T cells, 0.5 mM palmitate
Experimental: as §1
The Griess Reagent Kit for Nitrite Determination was performed according to the manufacturer's instructions (Molecular Probes) to assess the intracellular levels of nitrite (the stable metabolite of nitric oxide) using lysates of β-cells prepared in RIPA buffer (150 mM NaCl, 1% NP40, 0.5% sodium deoxycholate, 0.1% SDS, 50 mM Tris, pH 7.5).

[2] = Clearance of IL-22 and IL-22 fusion proteins from serum; type: in vivo, C57BL/6 mice; conditions: after administration to mice
Experimental: Targeting to IL-22 to pancreas: Non-obese male C57BL/6 at 6-8 weeks of age. Each IL-22-GLP-1R ligand fusion protein or hIL-22 was administered i.p. at 256 ng/g of IL-22 and the molar equivalents for the individual fusion proteins (n=3 per regimen). IL-22-ScaB1 was administered at […]. Control mice received a PBS control i.p. injection only.
Serum concentrations of IL-22 and the IL-22-GLP-1R ligand fusion proteins were determined using a human IL-22 double-determinant ELISA (Biolegend; 434505) against a standard curve for the individual fusion proteins.

[3] = HFDIO Experiment 1, 16 weeks on HFD
[4] = HFDIO Experiment 1, 16 weeks on NCD

IL-22: interleukin-22; recombinant murine IL-22 (R&D SYSTEMS) in the mouse experiments
expression of antioxidant genes Gpx5, Prdx5, Sod2 (also Ptgs1, Ptgs2, Cyba) (MIN6N8 cells): upregulated the antioxidant genes
expression of oxidative stress inducing genes Nos2, Hsp90ab1, Fth1 (MIN6N8 cells): down-regulates three key oxidative stress inducing genes
body weight during treatment ([1]; HFD): progressively lost weight during treatment without changing food consumption
hepatic Hspa5 mRNA ([1]; HFD, after 3 weeks treatment): decreased substantially
fasted serum proinsulin:insulin ratio ([1]; HFD, end of treatment): decreased the fasted serum proinsulin:insulin ratio
reduction of serum proinsulin ([1]; HFD, fasted, end of treatment): 92%
decrease of islet proinsulin ([1]; HFD, immunostaining): 64%
reduction of Grp78 in the β-cell region of islets ([1]; HFD, immunostaining): 75%
β-cell insulin stores ([1]; HFD, immunostaining): returned to levels in non-obese mice
reduction of the increase in IPGTT area under the curve (AUC glucose) ([1]; HFD, two weeks of treatment): 82%
Body weight (% original) [1, 3]: 129 ± 9 % original
Fasting blood glucose [1, 3]: 8.8 ± 0.9 mmol/L
Fasting serum insulin concentration [1, 3]: 1.1 ± 0.5 ng/mL
Fasting serum proinsulin concentration [1, 3]: 9.5 ± 3.8 pmol/L
Body weight (% original) [1, 4]: 118 ± 3 % original
Fasting blood glucose [1, 4]: 8.9 ± 0.8 mmol/L
Fasting serum insulin concentration [1, 4]: 0.5 ± 0.1 ng/mL
Fasting serum proinsulin concentration [1, 4]: Not detectable
ER stress caused by the protein alone (Murine MIN6N8 cells): did not cause ER stress
fold higher concentrations required for the same effect as human recombinant IL-22 in suppressing oxidative stress (nitrite) (Human LS174T cells): ~64 fold
time to almost complete clearance from serum [2]: ≤ 60 min
